Assay results published in US20250163038A1, “CBL-B MODULATORS AND USES THEREOF” (Nimbus Clio, Inc., priority 2021, published 2025).

Tests used:
[1] = target: Recombinant human Cbl-b (aa 36-427) (Homo sapiens, UniProt Q13191); experiment: Cbl-b Biochemical Assay (TR-FRET); settings: read-out: TR-FRET hCbl-b IC50
[2] = target: T1, Recombinant human c-Cbl (aa 47-435) (Homo sapiens, UniProt P22681); experiment: c-Cbl Biochemical Assay (TR-FRET); settings: hc-Cbl Biochemical Assay (TR-FRET); read-out: TR-FRET hcCbl IC50
T1 sequence (P22681 47-435): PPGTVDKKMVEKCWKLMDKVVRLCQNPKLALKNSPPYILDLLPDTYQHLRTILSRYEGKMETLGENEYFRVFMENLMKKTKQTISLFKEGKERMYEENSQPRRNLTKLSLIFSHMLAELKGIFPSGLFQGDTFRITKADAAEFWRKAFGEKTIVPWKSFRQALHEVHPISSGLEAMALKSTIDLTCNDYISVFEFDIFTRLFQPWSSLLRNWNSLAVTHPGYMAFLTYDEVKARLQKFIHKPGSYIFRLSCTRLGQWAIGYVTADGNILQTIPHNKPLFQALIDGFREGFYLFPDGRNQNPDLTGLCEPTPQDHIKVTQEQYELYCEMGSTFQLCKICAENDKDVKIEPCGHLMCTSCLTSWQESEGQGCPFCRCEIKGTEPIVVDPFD

Sequence of Recombinant human Cbl-b (aa 36-427) (Q13191 36-427): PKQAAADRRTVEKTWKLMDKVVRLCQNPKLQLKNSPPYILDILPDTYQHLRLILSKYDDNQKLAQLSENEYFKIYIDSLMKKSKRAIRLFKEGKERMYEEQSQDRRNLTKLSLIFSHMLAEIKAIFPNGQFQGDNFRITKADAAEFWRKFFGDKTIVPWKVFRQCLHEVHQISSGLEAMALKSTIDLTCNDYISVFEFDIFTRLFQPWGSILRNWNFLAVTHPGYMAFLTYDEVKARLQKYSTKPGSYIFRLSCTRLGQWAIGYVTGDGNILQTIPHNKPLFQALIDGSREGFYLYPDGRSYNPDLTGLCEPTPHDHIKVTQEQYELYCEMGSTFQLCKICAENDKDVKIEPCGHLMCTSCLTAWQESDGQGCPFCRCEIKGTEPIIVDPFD

SMILES | IC50 [1] | IC50 [2]
CC(Cc1nncn1C)c1cccc(-c2nc3ccc(OCCN(C)C)c(C(F)(F)F)c3[nH]2)c1 (stereo not drawn) [AW-4, N,N-dimethyl-2-((2-(3-(1-(4-methyl-4H-1,2,4-triazol-3-yl)propan-2-yl)phenyl)-7-(trifluoromethyl)-1H-benzo[d]imidazol-6-yl)oxy)ethan-1-amine] | 10 to 50 µM | 10 to 50 µM
CC(Cc1nncn1C)c1cccc(-c2nc3ccc(OCCN4CCCC4)c(C(F)(F)F)c3[nH]2)c1 (stereo not drawn) [AX-3, 2-(3-(1-(4-Methyl-4H-1,2,4-triazol-3-yl)propan-2-yl)phenyl)-6-(2-(pyrrolidin-1-yl)ethoxy)-7-(trifluoromethyl)-1H-benzo[d]imidazole] | 10 to 50 µM | 10 to 50 µM
Cn1cnnc1CC1(c2cccc(-c3nc4ccc(Br)c(C(F)(F)F)c4[nH]3)c2)COC1 [BA-1, 6-Bromo-2-(3-(3-((4-methyl-4H-1,2,4-triazol-3-yl)methyl)oxetan-3-yl)phenyl)-7-(trifluoromethyl)-1H-benzo[d]imidazole] | 1 to 10 µM | 10 to 50 µM
Cn1cnnc1-c1ccccc1-c1cccc(-c2nc3ccc(N)c(C(F)(F)F)c3[nH]2)c1 [BE-2, 2-(2′-(4-Methyl-4H-1,2,4-triazol-3-yl)-[1,1′-biphenyl]-3-yl)-7-(trifluoromethyl)-1H-benzo[d]imidazol-6-amine] | 10 to 50 µM | 10 to 50 µM
Cn1cnnc1-c1ccccc1-c1cccc(-c2nc3ccc(OCCN4CCCC4)c(C(F)(F)F)c3[nH]2)c1 [BG-1, 2-(2′-(4-Methyl-4H-1,2,4-triazol-3-yl)-[1,1′-biphenyl]-3-yl)-6-(2-(pyrrolidine-1-yl)ethoxy)-7-(trifluoromethyl)-1H-benzo[d]imidazole] | 10 to 50 µM | 10 to 50 µM
CN1CC[C@@H](Oc2ccc3nc(-c4cccc(-c5ccccc5-c5nncn5C)c4)[nH]c3c2C(F)(F)F)C1 [BH-3, (R)-2-(2′-(4-Methyl-4H-1,2,4-triazol-3-yl)-[1,1′-biphenyl]-3-yl)-6-((1-methylpyrrolidin-3-yl)oxy)-7-(trifluoromethyl)-1H-benzo[d]imidazole] | 10 to 50 µM | 10 to 50 µM
Cn1cnnc1-c1cc(C#N)ccc1-c1cccc(-c2nc3cccc(C(F)(F)F)c3[nH]2)c1 [CB-1, 2-(4-Methyl-4H-1,2,4-triazol-3-yl)-3′-(4-(trifluoromethyl)-1H-benzo[d]imidazol-2-yl)-[1,1′-biphenyl]-4-carbonitrile] | 10 to 50 µM | 10 to 50 µM
CCN(Cc1cc(C(F)(F)F)c2oc(-c3cccc(-c4ccc(F)cc4-c4nncn4C)c3)nc2c1)CC1(C#N)CCCC1 [CO-2, 1-((Ethyl((2-(4′-fluoro-2′-(4-methyl-4H-1,2,4-triazol-3-yl)-[1,1′-biphenyl]-3-yl)-7-(trifluoromethyl)benzo[d]oxazol-5-yl)methyl)amino)methyl)cyclopentane-1-carbonitrile] | < 0.2 µM | 1 to 10 µM
COC(=O)c1cc(C(F)(F)F)c2oc(-c3cccc(-c4ccccc4-c4nncn4C)c3)nc2c1 [Example G-1, Methyl 2-(2′-(4-methyl-4H-1,2,4-triazol-3-yl)-[1,1′-biphenyl]-3-yl)-7-(trifluoromethyl)benzo[d]oxazole-5-carboxylate] | 10 to 50 µM | 10 to 50 µM
C[C@H]1CCCN(C(=O)c2cc(C(F)(F)F)c3oc(-c4cccc(-c5ccccc5-c5nncn5C)c4)nc3c2)C1 [Example I-2, (S)-(2-(2′-(4-Methyl-4H-1,2,4-triazol-3-yl)-[1,1′-biphenyl]-3-yl)-7-(trifluoromethyl)benzo[d]oxazol-5-yl)(3-methylpiperidin-1-yl)methanone] | 10 to 50 µM | 10 to 50 µM
Cn1cnnc1-c1ccccc1-c1cccc(-c2nc3cc(C(C)(C)O)cc(C(F)(F)F)c3o2)c1 [Example J-1, 2-(2-(2′-(4-Methyl-4H-1,2,4-triazol-3-yl)-[1,1′-biphenyl]-3-yl)-7-(trifluoromethyl)benzo[d]oxazol-5-yl)propan-2-ol] | 10 to 50 µM | 10 to 50 µM

The next lines start with the values.

IC50 [1] | IC50 [2] | SMILES
10 to 50 µM | 10 to 50 µM | COC(OC)c1ccc2oc(-c3cccc(-c4ccc(F)cc4-c4nncn4C)c3)nc2c1 [AT-1, 5-(Dimethoxymethyl)-2-(4′-fluoro-2′-(4-methyl-4H-1,2,4-triazol-3-yl)-[1,1′-biphenyl]-3-yl)benzo[d]oxazole]
0.2 to 1 µM | 10 to 50 µM | Cn1cnnc1-c1cc(C#N)ccc1-c1cccc(-c2nc3cccc(C(F)(F)F)c3o2)c1 [AU-1, 2-(4-Methyl-4H-1,2,4-triazol-3-yl)-3′-(7-(trifluoromethyl)benzo[d]oxazol-2-yl)-[1,1′-biphenyl]-4-carbonitrile]
10 to 50 µM | 10 to 50 µM | CN(C)CCOc1ccc2nc(-c3cccc(C4(Cc5nncn5C)COC4)c3)[nH]c2c1C(F)(F)F [AZ-1, N,N-Dimethyl-2-((2-(3-(3-((4-methyl-4H-1,2,4-triazol-3-yl)methyl)oxetan-3-yl)phenyl)-7-(trifluoromethyl)-1H-benzo[d]imidazol-6-yl)oxy)ethan-1-amine]
0.2 to 1 µM | 10 to 50 µM | Cn1cnnc1-c1cc(F)ccc1-c1cccc(-c2nc3cccc(C(F)(F)F)c3[nH]2)c1 [BI-1, 2-(4′-Fluoro-2′-(4-methyl-4H-1,2,4-triazol-3-yl)-[1,1′-biphenyl]-3-yl)-7-(trifluoromethyl)-1H-benzo[d]imidazole]
< 0.2 µM | 1 to 10 µM | Cn1cnnc1-c1cc(F)ccc1-c1cccc(-c2nc3cc(CNC4(CO)COC4)cc(C(F)(F)F)c3[nH]2)c1 [BS-1, (3-(((2-(4′-Fluoro-2′-(4-methyl-4H-1,2,4-triazol-3-yl)-[1,1′-biphenyl]-3-yl)-7-(trifluoromethyl)-1H-benzo[d]imidazol-5-yl)methyl)amino)oxetan-3-yl)methanol]
10 to 50 µM | 10 to 50 µM | Cn1cnnc1-c1cc(F)ccc1-c1cccc(-c2nc3cc(CO)ccc3[nH]2)c1 [BW-3, (2-(4′-Fluoro-2′-(4-methyl-4H-1,2,4-triazol-3-yl)-[1,1′-biphenyl]-3-yl)-1H-benzo[d]imidazol-5-yl)methanol]
0.2 to 1 µM | 10 to 50 µM | Cn1cnnc1-c1cc(F)ccc1-c1cccc(-c2nc3cc(CNCC(C)(C)O)ccc3[nH]2)c1 [BX-2, 1-(((2-(4′-Fluoro-2′-(4-methyl-4H-1,2,4-triazol-3-yl)-[1,1′-biphenyl]-3-yl)-1H-benzo[d]imidazol-5-yl)methyl)amino)-2-methylpropan-2-ol]
1 to 10 µM | 10 to 50 µM | Cn1cnnc1-c1cc(C#N)ccc1-c1cccc(-c2nc3cc(CO)cc(C(F)(F)F)c3[nH]2)c1 [BZ-1, 3′-(5-(Hydroxymethyl)-7-(trifluoromethyl)-1H-benzo[d]imidazol-2-yl)-2-(4-methyl-4H-1,2,4-triazol-3-yl)-[1,1′-biphenyl]-4-carbonitrile]
10 to 50 µM | 10 to 50 µM | Cn1cnnc1CC1(c2cccc(-c3cc(C(F)(F)F)cn(C)c3=O)c2)COC1 [CF-2, 1-Methyl-3-(3-(3-((4-methyl-4H-1,2,4-triazol-3-yl)methyl)oxetan-3-yl)phenyl)-5-(trifluoromethyl)pyridin-2(1H)-one]
10 to 50 µM | 10 to 50 µM | COC(=O)c1[nH]c(=O)c(-c2cccc(-c3ccccc3-c3nncn3C)c2)cc1C(F)(F)F [CH-2, Methyl 5-(2′-(4-methyl-4H-1,2,4-triazol-3-yl)-[1,1′-biphenyl]-3-yl)-6-oxo-3-(trifluoromethyl)-1,6-dihydropyridine-2-carboxylate]
0.2 to 1 µM | 1 to 10 µM | Cn1cnnc1-c1cc(F)ccc1-c1cccc(-c2nc3cc(C(=O)N[C@@H]4CCC[C@@H]4O)cc(C(F)(F)F)c3o2)c1 [DB-2, 2-(4′-Fluoro-2′-(4-methyl-4H-1,2,4-triazol-3-yl)-[1,1′-biphenyl]-3-yl)-N-((1R,2S)-2-hydroxycyclopentyl)-7-(trifluoromethyl)benzo[d]oxazole-5-carboxamide]
1 to 10 µM | 10 to 50 µM | Cn1cnnc1-c1cc(F)ccc1-c1cccc(-c2nc3ccc(CO)cc3o2)c1 [DC-3, (2-(4′-Fluoro-2′-(4-methyl-4H-1,2,4-triazol-3-yl)-[1,1′-biphenyl]-3-yl)benzo[d]oxazol-6-yl)methanol]
< 0.2 µM | 1 to 10 µM | CC(=O)c1cc(C(F)(F)F)c2oc(-c3cccc(-c4ccc(F)cc4-c4nncn4C)c3)nc2c1 [DK-1, 1-(2-(4′-Fluoro-2′-(4-methyl-4H-1,2,4-triazol-3-yl)-[1,1′-biphenyl]-3-yl)-7-(trifluoromethyl)benzo[d]oxazol-5-yl)ethan-1-one]
0.2 to 1 µM | 10 to 50 µM | C[C@@H]1CN(Cc2cc(C(F)(F)F)c3oc(-c4cccc(-c5ccccc5-c5nncn5C)c4)nc3c2)CCO1 [Example 0-4, (R)-2-(2′-(4-Methyl-4H-1,2,4-triazol-3-yl)-[1,1′-biphenyl]-3-yl)-5-((2-methylmorpholino)methyl)-7-(trifluoromethyl)benzo[d]oxazole]
1 to 10 µM | 10 to 50 µM | Cn1cnnc1-c1ccccc1-c1cccc(-c2nc3cc(CO)cc(C(F)(F)F)c3o2)c1 [Example F-5, (2-(2′-(4-Methyl-4H-1,2,4-triazol-3-yl)-[1,1′-biphenyl]-3-yl)-7-(trifluoromethyl)benzo[d]oxazol-5-yl)methanol]
10 to 50 µM | 10 to 50 µM | Cn1cnnc1-c1ccccc1-c1cccc(-c2nc3cc(C(=O)O)cc(C(F)(F)F)c3o2)c1 [Example H-1, 2-(2′-(4-Methyl-4H-1,2,4-triazol-3-yl)-[1,1′-biphenyl]-3-yl)-7-(trifluoromethyl)benzo[d]oxazole-5-carboxylic Acid]
